In US20250099475A1, “METHODS OF TREATING HYPERTENSION BY PERIODIC SUPPRESSION OF ALDOSTERONE SYNTHASE” (Mineralys Therapeutics, Inc., priority 2022, published 2025):

What was measured:
hypertensive subjects = experiment: Example 4 dose-ranging study: automated office blood pressure (AOBP); format: in vivo, human; details: for Change in AOBP BPdias, Mean (sem) / Change in AOBP BPsys, Mean (sem): Week 8, Full Analysis Set
Protocol: A randomized, double-blinded, placebo-controlled, dose-ranging, multicenter study was conducted to evaluate the effect of orally administered Compound A HBr on blood pressure for the treatment of hypertension in male and female subjects ≥18 years of age.
The study consists of two parts. For enrollment into Part 1 of the study, a subject's value of plasma renin activity (PRA) must be ≤1 ng/mL/h based on morning measurement. If the value of PRA >1 ng/mL/h based on morning measurement, then subjects may be eligible to enter Part 2 of the study.
For Part 1, 163 enrolled subjects ≥18 years of age were randomized into 6 equal treatment groups (1:1:1:1:1:1) to 12.5 mg BID, 25 mg BID, 12.5 mg QD, 50 mg QD, 100 mg QD, or placebo. After a review of interim clinical data, the 2 lowest dose levels (12.5 mg QD and 12.5 mg BID) were stopped for future randomization due to a lack of consistent meaningful reduction of blood pressure, but the patients randomized to that point remained in the study through completion. Thus, after the review of interim clinical data, subjects were randomized into 4 equal treatment groups (1:1:1:1) to 25 mg BID, 50 mg QD, 100 mg QD, or placebo.
For Part 2, 36 enrolled subjects ≥18 years of age were randomized (5:1) to either 100 mg QD Compound A HBr or placebo such that the Compound A HBr treatment group consisted of approximately 30 subjects and the placebo treatment group will consist of approximately 6 subjects.
Subjects orally administered the assigned study drug (Compound A HBr or placebo) according to the assigned dosing regimen for 8 weeks beginning on Study Day 1. All subjects in Part 1 (regardless of dosing group) received BID dosing to preserve the integrity of the blind; active drug is administered as the morning dose for all QD dose groups. Subjects returned to the research facility or were seen by the clinical investigator or approved home health care professional at the end of Study Weeks 1, 2, 3, 4, 5, 6, 7, and 8 (±2 days) for protocol-defined efficacy and safety assessments and procedures, assessment of adverse events (AEs), and confirmation of compliance with study drug usage. Subjects also completed a telephone visit and blood pressure (BP) check at home approximately 3 days post last dose of study drug. Subjects attended up to 14 full clinic visits, including a pre-Screening visit, a Screening/start of Placebo Run-in visit, a second visit during Placebo Run-in, a clinic visit to initiate the ABPM procedure, a Randomization visit, 8 weekly visits during double-blind treatment, and an end-of-study visit scheduled 4 weeks after the last study treatment for final efficacy and safety assessments.
An automated oscillometric sphygmomanometer device was used to measure the subjects' systolic and diastolic blood pressure in office after approximately 5 minutes of rest in the seated position.
The primary endpoint is the change in office-measured (mean of last 2 of 5 unattended measurements using an automated oscillometric sphygmomanometer device after approximately 5 minutes of rest in the seated position) systolic blood pressure (SBP) from baseline to the end of Study Week 8.

[1] = tested on: human adrenocortical NCI-H295R cell culture; experiment: Inhibitory effects on adrenal steroidogenesis; format: cell-based; details: 3 days of incubation
Protocol: Multiple concentrations of Compound A and aminoglutethimide (positive control) were evaluated in a human adrenocortical NCI-H295R cell culture. The effect of Compound A on adrenal steroidogenesis was determined by measurement of 12 steroid hormones in the culture medium after 3 days of incubation. The following steroids were measured: pregnenolone, 11-deoxycortisol, 17α-hydroxypregnenolone, 11-DOC, dehydroepiandrosterone, corticosterone, progesterone, cortisol, 17α-hydroxyprogesterone, aldosterone, androstenedione, and testosterone.

[2] = tested on: plasma aldosterone concentrations (PACs); experiment: Sodium-depleted cynomolgus monkey model; format: in vivo; details: single oral administration
Protocol: A sodium-depleted cynomolgus monkey model with secondary hyperaldosteronism was performed to evaluate the effect of Compound A on plasma aldosterone concentrations (PACs). The model used a low-sodium diet and 3 doses of 5 mg/kg furosemide. Two animals each were assigned to 6 groups consisting of a vehicle group and 5 Compound A (free base) groups (0.3, 1, 3, 10, and 30 mg/kg). Six crossovers were performed so that every animal was assigned to each group. Hyperaldosteronism was induced once every 3 weeks. PAC was determined by radioimmunoassay and measured during the 24 hours after Compound A administration.

[3] = pooled 50 mg QD, 100 mg QD, 12.5 mg BID and 25 mg BID cohorts (N=103)

CC(=O)N[C@H]1CC[C@H](NC(=O)CN2CCN(c3nncc(-c4ccc(C)cc4)n3)CC2)CC1 [Compound A HBr]
reduction in AOBP systolic BP, placebo-corrected, Full-analysis set (hypertensive subjects; 100 mg, Part-1 and Part-2 (interim) combined, N=58 active): −9.9 mmHg
Difference from placebo in blood pressure change (LS modeled mean) (hypertensive subjects; Age 65-79, 12.5 mg BID): −1.5 (13)
Difference from placebo in blood pressure change (LS modeled mean) (hypertensive subjects; Age 65-79, 12.5 mg QD): 1.1 (10)
Difference from placebo in blood pressure change (LS modeled mean) (hypertensive subjects; Age 65-79, 25 mg BID): −2.4 (15)
Difference from placebo in blood pressure change (LS modeled mean) (hypertensive subjects; Age 65-79, 50 mg QD): −8.8 (13)
Difference from placebo in blood pressure change (LS modeled mean) (hypertensive subjects; Age 65-79, 100 mg QD): −1.6 (18)
Difference from placebo in blood pressure change (LS modeled mean) (hypertensive subjects; Age <65, 12.5 mg BID): −5.4 (6)
Difference from placebo in blood pressure change (LS modeled mean) (hypertensive subjects; Age <65, 12.5 mg QD): −0.3 (10)
Difference from placebo in blood pressure change (LS modeled mean) (hypertensive subjects; Age <65, 25 mg BID): −8.5 (13)
Difference from placebo in blood pressure change (LS modeled mean) (hypertensive subjects; Age <65, 50 mg QD): −10.2 (13)
Difference from placebo in blood pressure change (LS modeled mean) (hypertensive subjects; Age <65, 100 mg QD): −15.7 (8)
Difference from placebo in blood pressure change (LS modeled mean) (hypertensive subjects; Background hypertension therapy 2 medications, 12.5 mg BID): −1.2 (7)
Difference from placebo in blood pressure change (LS modeled mean) (hypertensive subjects; Background hypertension therapy 2 medications, 12.5 mg QD): 1.8 (14)
Difference from placebo in blood pressure change (LS modeled mean) (hypertensive subjects; Background hypertension therapy 2 medications, 25 mg BID): 1.4 (14)
Difference from placebo in blood pressure change (LS modeled mean) (hypertensive subjects; Background hypertension therapy 2 medications, 50 mg QD): −3.7 (20)
Difference from placebo in blood pressure change (LS modeled mean) (hypertensive subjects; Background hypertension therapy 2 medications, 100 mg QD): −7.5 (14)
Difference from placebo in blood pressure change (LS modeled mean) (hypertensive subjects; Background hypertension therapy 3+ medications, 12.5 mg BID, * p < 0.05): −12.2* (15)
Difference from placebo in blood pressure change (LS modeled mean) (hypertensive subjects; Background hypertension therapy 3+ medications, 12.5 mg QD): −6.0 (9)
Difference from placebo in blood pressure change (LS modeled mean) (hypertensive subjects; Background hypertension therapy 3+ medications, 25 mg BID, * p < 0.05): −15.8* (16)
Difference from placebo in blood pressure change (LS modeled mean) (hypertensive subjects; Background hypertension therapy 3+ medications, 50 mg QD, * p < 0.05): −19.1* (8)
Difference from placebo in blood pressure change (LS modeled mean) (hypertensive subjects; Background hypertension therapy 3+ medications, 100 mg QD): −9.6 (16)
Difference from placebo in blood pressure change (LS modeled mean) (hypertensive subjects; Baseline BPsys High tertile, 12.5 mg BID): −9.7
Difference from placebo in blood pressure change (LS modeled mean) (hypertensive subjects; Baseline BPsys High tertile, 12.5 mg QD): −3.6
Difference from placebo in blood pressure change (LS modeled mean) (hypertensive subjects; Baseline BPsys High tertile, 25 mg BID): −5.6
Difference from placebo in blood pressure change (LS modeled mean) (hypertensive subjects; Baseline BPsys High tertile, 50 mg QD, * p < 0.05): −20.6*
Difference from placebo in blood pressure change (LS modeled mean) (hypertensive subjects; Baseline BPsys High tertile, 100 mg QD): −9.7
Difference from placebo in blood pressure change (LS modeled mean) (hypertensive subjects; Baseline BPsys Low tertile, 12.5 mg BID): 3.8
Difference from placebo in blood pressure change (LS modeled mean) (hypertensive subjects; Baseline BPsys Low tertile, 12.5 mg QD): −10.7
Difference from placebo in blood pressure change (LS modeled mean) (hypertensive subjects; Baseline BPsys Low tertile, 25 mg BID): −8.8
Difference from placebo in blood pressure change (LS modeled mean) (hypertensive subjects; Baseline BPsys Low tertile, 50 mg QD): −8.3
Difference from placebo in blood pressure change (LS modeled mean) (hypertensive subjects; Baseline BPsys Low tertile, 100 mg QD): −11.8
Difference from placebo in blood pressure change (LS modeled mean) (hypertensive subjects; Baseline BPsys Middle tertile, 12.5 mg BID): −9.7
Difference from placebo in blood pressure change (LS modeled mean) (hypertensive subjects; Baseline BPsys Middle tertile, 12.5 mg QD): 9.3
Difference from placebo in blood pressure change (LS modeled mean) (hypertensive subjects; Baseline BPsys Middle tertile, 25 mg BID): −4.0
Difference from placebo in blood pressure change (LS modeled mean) (hypertensive subjects; Baseline BPsys Middle tertile, 50 mg QD): −11.9
Difference from placebo in blood pressure change (LS modeled mean) (hypertensive subjects; Baseline BPsys Middle tertile, 100 mg QD): −11.8
Difference from placebo in blood pressure change (LS modeled mean) (hypertensive subjects; Gender Female, 12.5 mg BID): −3.79 (14)
Difference from placebo in blood pressure change (LS modeled mean) (hypertensive subjects; Gender Female, 12.5 mg QD): −0.2 (12)
Difference from placebo in blood pressure change (LS modeled mean) (hypertensive subjects; Gender Female, 25 mg BID): −5.18 (19)
Difference from placebo in blood pressure change (LS modeled mean) (hypertensive subjects; Gender Female, 50 mg QD): −11.3 (15)
Difference from placebo in blood pressure change (LS modeled mean) (hypertensive subjects; Gender Female, 100 mg QD): −5.1 (18)
Difference from placebo in blood pressure change (LS modeled mean) (hypertensive subjects; Gender Male, 12.5 mg BID): −13.8 (8)
Difference from placebo in blood pressure change (LS modeled mean) (hypertensive subjects; Gender Male, 12.5 mg QD): −2.3 (11)
Difference from placebo in blood pressure change (LS modeled mean) (hypertensive subjects; Gender Male, 25 mg BID): −9.5 (11)
Difference from placebo in blood pressure change (LS modeled mean) (hypertensive subjects; Gender Male, 50 mg QD): −8.3 (13)
Difference from placebo in blood pressure change (LS modeled mean) (hypertensive subjects; Gender Male, 100 mg QD): −12.4 (12)
reduction in AOBP systolic BP, per-protocol, placebo-corrected (hypertensive subjects; Part-1 100 mg cohort): −10.3 mmHg
Difference from placebo in blood pressure change (LS modeled mean) (hypertensive subjects; Race Black, 12.5 mg BID): 5.57 (7)
Difference from placebo in blood pressure change (LS modeled mean) (hypertensive subjects; Race Black, 12.5 mg QD): 6.75 (11)
Difference from placebo in blood pressure change (LS modeled mean) (hypertensive subjects; Race Black, 25 mg BID): −10.1 (7)
Difference from placebo in blood pressure change (LS modeled mean) (hypertensive subjects; Race Black, 50 mg QD): −6.9 (8)
Difference from placebo in blood pressure change (LS modeled mean) (hypertensive subjects; Race Black, 100 mg QD): −7.0 (15)
Difference from placebo in blood pressure change (LS modeled mean) (hypertensive subjects; Race Other, 12.5 mg BID): −14.7 (15)
Difference from placebo in blood pressure change (LS modeled mean) (hypertensive subjects; Race Other, 12.5 mg QD): −7.5 (12)
Difference from placebo in blood pressure change (LS modeled mean) (hypertensive subjects; Race Other, 25 mg BID): −7.2 (23)
Difference from placebo in blood pressure change (LS modeled mean) (hypertensive subjects; Race Other, 50 mg QD): −12.1 (20)
Difference from placebo in blood pressure change (LS modeled mean) (hypertensive subjects; Race Other, 100 mg QD): −9.2 (15)
Change in AOBP BPdias, Mean (sem) (hypertensive subjects; 12.5 mg BID): −6.1 (1.8) mmHg
Change in AOBP BPsys, Mean (sem) (hypertensive subjects; 12.5 mg BID): −11.3 (3.1) mmHg
Change in AOBP BPdias, Mean (sem) (hypertensive subjects; 12.5 mg QD): −6.1 (1.8) mmHg
Change in AOBP BPsys, Mean (sem) (hypertensive subjects; 12.5 mg QD): −5.7 (3.1) mmHg
Change in AOBP BPdias, Mean (sem) (hypertensive subjects; 25 mg BID): −3.83 (2.1) mmHg
Change in AOBP BPsys, Mean (sem) (hypertensive subjects; 25 mg BID): −11.0 (2.6) mmHg
Change in AOBP BPdias, Mean (sem) (hypertensive subjects; 50 mg QD): −8.1 (1.7) mmHg
Change in AOBP BPsys, Mean (sem) (hypertensive subjects; 50 mg QD): −13.9 (2.6) mmHg
Change in AOBP BPdias, Mean (sem) (hypertensive subjects; 100 mg QD): −4.76 (1.5) mmHg
Change in AOBP BPsys, Mean (sem) (hypertensive subjects; 100 mg QD): −12.2 (2.7) mmHg
mean reduction in AOBP measured systolic BP (hypertensive subjects; doses of 50 mg and 100 mg QD): −11 to −13 mmHg
subjects with a change in BPsys >−15 mmHg (hypertensive subjects; [3]): 41%
subjects with a change in BPsys >−25 mmHg (hypertensive subjects; [3]): 25%
subjects who achieved >−23 mmHg fall in systolic blood pressure (hypertensive subjects; week 8, pooled 50 mg QD, 100 mg QD, 12.5 mg BID, 25 mg BID cohorts): 25%
mean reduction in systolic blood pressure in the highest response quartile (hypertensive subjects; week 8, pooled cohorts): −33.4+1.5 mmgHg
subjects who achieved a ≥15 mmHg fall in systolic blood pressure (hypertensive subjects; week 8, pooled cohorts): 41%

CC(=O)N[C@H]1CC[C@H](NC(=O)CN2CCN(c3nncc(-c4ccc(C)cc4)n3)CC2)CC1 [Compound A]
reduction in aldosterone secretion ([1]; concentrations ≥0.11 μmol/L): > 50%
reduction in corticosterone ([1]; concentrations ≥1 μmol/L): > 50%
reductions in pregnenolone, progesterone, 17α-hydroxyprogesterone, 11-DOC, corticosterone, and cortisol ([1]; top concentration 3 μmol/L): < 50%
effect on PAC [2]: significantly decreased PAC
